Measurements as given in patent US6608086B2, “Dihydropyridines and new uses thereof” (Synaptic Pharmaceutical Corporation, priority 1993, dated 2003).
Where two headings read alike, the source gives them in different places.

Columns and labels:
α2B receptor = biological target: T1, α2B receptor (Homo sapiens, UniProt P18089); assay: Competition binding, [3H]rauwolscine, human α2B receptor
T1 construct: host or cells: LM(tk-) cells, line L-NGC-α2B
T1 sequence (P18089 1-450): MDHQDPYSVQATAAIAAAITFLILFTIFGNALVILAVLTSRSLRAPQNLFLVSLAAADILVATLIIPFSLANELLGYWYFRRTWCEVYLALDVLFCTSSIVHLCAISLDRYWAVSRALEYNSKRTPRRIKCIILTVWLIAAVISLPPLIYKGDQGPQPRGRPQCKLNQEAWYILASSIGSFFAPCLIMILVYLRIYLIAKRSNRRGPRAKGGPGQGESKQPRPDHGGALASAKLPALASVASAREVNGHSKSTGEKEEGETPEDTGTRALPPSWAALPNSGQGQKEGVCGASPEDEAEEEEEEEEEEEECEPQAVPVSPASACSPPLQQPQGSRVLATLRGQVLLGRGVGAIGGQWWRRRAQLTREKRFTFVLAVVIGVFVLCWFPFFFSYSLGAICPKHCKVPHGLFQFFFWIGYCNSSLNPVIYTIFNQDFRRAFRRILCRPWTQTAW
Method in brief: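 Filter-bound [3H]rauwolscine (0.5 nM) was measured after equilibrium competition with test antagonists on lysates of LM(tk−) cells stably transfected with each human α2 subtype. Buffer: 25 mM glycylglycine, pH 7.6 at room temperature; 10 μM phentolamine gave nonspecific binding.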

[1] = pKi alpha-2 2b, [3H]rauwolscine, human α2B receptor, LM(tk−) cells
[2] = pKi alpha-2 2b, [3H]rauwolscine, LM(tk-) cell line L-NGC-α2B, SEM and n in lines below

Row | Compound | Ki (α2B receptor; [1]) | melting point | Ki (α2B receptor; pKi alpha-2 2b) | Ki (α2B receptor; [3H]rauwolscine, LM(tk-) cell line L-NGC-α2B, SEM and n in lines below, read-out: pKi alpha-2 2b (converted)) | Ki (α2B receptor; [2])
1 | CNC(=O)C1=C(C)NC(C)=C(C(=O)NCCCN2CCC(O)(c3ccccc3)CC2)C1c1ccc([N+](=O)[O-])cc1 (stereo not shown) [Example 162, 1,4-Dihydro-3-{N-[3-(4-hydroxy-4-phenylpiperidin-1-yl)propyl]}carboxamido-2,6-dimethyl-5-(N-methyl)carboxamido-4-(4-nitrophenyl)pyridine] | 347 nM | 87 to 91 °C | – | – | –
2 | CCC1=C(C(=O)NCCCN2CCC(c3ccccc3)(c3ccccc3)CC2)C(c2cccc(OC)c2)C(C(=O)NCCCN2CCC(c3ccccc3)(c3ccccc3)CC2)=C(CC)N1 [Example 112, 2,6-Diethyl-1,4-dihydro-4-(3-methoxyphenyl)-3,5-bis(N-(3-(4,4-diphenylpiperidin-1-yl)propyl)carboxamido)-pyridine] | 447 nM | 166 to 170 °C | – | – | –
3 | CC1=C(C(N)=O)C(c2ccc(S(C)(=O)=O)cc2)C(C(=O)NCCCN2CCC(c3ccccc3)(c3ccccc3)CC2)=C(C)N1 (stereo not shown) [Example 115, 5-Carboxamido-1,4-4-dihydro-4-(4-methanesufonylphenyl)-2,6-dimethyl-3-(N-(3-(4,4-diphenylpiperidin-1-yl)propyl)carboxamido)-pyridine] | 776 nM | 206 to 209 °C | – | – | –
4 | COc1cccc(C2C(C(N)=O)=C(C)NC(C)=C2C(=O)NCCCN2CCC(c3ccccc3)(c3ccccc3)CC2)c1 (stereo not shown) [Example 117, 5-Carboxamido-1,4-dihydro-4-(3-Methoxyphenyl)-2,6-dimethyl-3-(N-(3-(4,4-diphenylpiperidin-1-yl)propyl)carboxamido)-pyridine] | 437 nM | 212 to 213 °C | – | – | –
5 | COC(=O)C1=C(C)NC(C)=C(C(=O)NCCCN2CCC(c3ccccc3)(c3ccccc3)CC2)C1c1ccncc1 (stereo not shown) [Example 5, 1,4-Dihydro-5-methoxycarbonyl-2,6-dimethyl-3-(N-(3-(4,4-diphenylpiperidin-1-yl)propyl)carboxamido)-4-(4-pyridyl)pyridine] | – | 224 to 226 °C (dec.) | 2140 nM | – | –
6 | COC(=O)C1=C(C)NC(C)=C(C(=O)NCCCN2CCC(c3ccccc3)(c3ccccc3)CC2)C1c1ccc(OC)c(OC)c1 (stereo not shown) [Example 26] | – | 180 to 181 °C | 977 nM | – | –
7 | COC(=O)C1=C(C)NC(C)=C(C(=O)NCCCN2CCC(c3ccccc3)(c3ccccc3)CC2)C1c1ccc(OC)cc1 (stereo not shown) [Example 21, 1,4-Dihydro-3-methoxycarbonyl-4-(4-Methoxyphenyl)-2,6-dimethyl-5-(N-(3-(4,4-diphenylpiperidin-1-yl)propyl)carboxamido)pyridine] | – | 212 to 213 °C | 1070 nM | – | –
8 | COC(=O)C1=C(C)NC(C)=C(C(=O)NCCCN2CCC(c3ccccc3)(c3ccccc3)CC2)C1c1ccc(-c2ccccc2)cc1 (stereo not shown) [Example 7] | – | 136 to 139 °C | 1620 nM | – | –
9 | COC(=O)C1=C(C)NC(C)=C(C(=O)NCCCN2CCC(c3ccccc3)(c3ccccc3)CC2)C1c1ccc2c(c1)OCO2 (stereo not shown) [Example 11, 1,4-Dihydro-3-methoxycarbonyl-2,6-dimethyl-4-(3,4-methylenedioxyphenyl)-5-(N-(3-(4,4-diphenylpiperidin-1-yl)propyl)carboxamido)pyridine] | – | 197 to 200 °C | 871 nM | – | –
10 | COC(=O)C1=C(C)NC(C)=C(C(=O)NCCCN2CCC(c3ccccc3)(c3ccccc3)CC2)C1c1ccc([N+](=O)[O-])c(OC)c1 (stereo not shown) [Example 29, 1,4-Dihydro-3-methoxycarbonyl-4-(3-methoxy-4-nitrophenyl)-2,6-dimethyl-5-(N-(3-(4,4-diphenylpiperidin-1-yl)propyl)carboxamido)pyridine] | – | 211 to 213 °C | – | 631 nM | –
11 | COC(=O)C1=C(C)NC(C)=C(C(=O)NCCCN2CCC(c3ccccc3)(c3ccccc3)CC2)C1c1cc(OC)c(OC)c(OC)c1 (stereo not shown) [Example 27] | – | 187 to 188 °C | 1050 nM | – | –
12 | COC(=O)C1=C(C)NC(C)=C(C(=O)NCCCN2CCC(c3ccccc3)(c3ccccc3)CC2)C1c1ccc(Br)cc1 (stereo not shown) [Example 15, 4-(4-Bromophenyl)-1,4-dihydro-3-methoxycarbonyl-2,6-dimethyl-5-(N-(3-(4,4-diphenylpiperidin-1-yl)propyl)carboxamido)pyridine] | – | 244 to 247 °C (dec.) | 3390 nM | – | –
13 | CCNC(=O)C1=C(COCCN=[N+]=[N-])NC(CC)=C(C(=O)NCCCN2CCC(c3ccccc3)(c3ccccc3)CC2)C1c1ccc([N+](=O)[O-])cc1 (stereo not shown) [Example 147, 2-((2-Azidoethyl)oxy)methyl-6-ethyl-3-(N-ethyl)carboxamido-1,4-dihydro-4-(4-nitro)phenyl-5-(N-(3-(4,4-diphenylpiperidin-1-yl-)propyl))carboxamidopyridine] | 1100 nM | 83 to 87 °C | – | – | –
14 | CC1=C(C(=O)NCCCN2CCC(c3ccccc3)(c3ccccc3)CC2)C(c2ccc([N+](=O)[O-])cc2)c2c([nH]c(=O)[nH]c2=O)N1 (stereo not shown) [Example 64] | – | 184 to 186 °C | – | – | 437 nM
15 | COC(=O)C1=C(C)NC(C)=C(C(=O)NCCCN2CCC(c3ccccc3)(c3ccccc3)CC2)C1c1ccc(C(F)(F)F)cc1 (stereo not shown) [Example 1] | – | 228 to 231 °C | 3310 nM | – | –
16 | COC(=O)C1=C(C)NC(C)=C(C(=O)NCCCN2CCC(c3ccccc3)(c3ccccc3)CC2)C1c1ccc(C(C)C)cc1 (stereo not shown) [Example 18, 1,4-Dihydro-4-(4-isopropylphenyl)-3-methoxycarbonyl-2,6-dimethyl-5-(N-(3-(4,4-diphenylpiperidin-1-yl)propyl)carboxamido)pyridine] | – | 163 to 163.5 °C | 1620 nM | – | –
17 | COC(=O)C1=C(C)NC(C)=C(C(=O)NCCCN2CCC(c3ccccc3)(c3ccccc3)CC2)C1C1CCCCC1 (stereo not shown) [Example 6] | – | 171 to 174 °C | 447 nM | – | –
18 | COC(=O)C1=C(C)NC(C)=C(C(=O)NCCCN2CCC(c3ccccc3)(c3ccccc3)CC2)C1Cc1ccccc1 (stereo not shown) [Example 8, 4-Benzyl-1,4-dihydro-3-methoxycarbonyl-2,6-dimethyl-5-(N-(3-(4,4-diphenylpiperidin-1-yl)propyl)carboxamido)pyridine] | – | 175 to 177 °C | – | – | 1860 nM
19 | COC(=O)C1=C(C)NC(C)=C(C(=O)NCCCN2CCC(c3ccccc3)(c3ccccc3)CC2)C1c1ccc(C(=O)OC)cc1 (stereo not shown) [Example 25, 1,4-Dihydro-3-methoxycarbonyl-4-(4-methoxycarbonylphenyl)-2,6-dimethyl-5-(N-(3-(4,4-diphenylpiperidin-1-yl)propyl)carboxamide)pyridine] | – | 175.5 to 176 °C | 501 nM | – | –
20 | CCC1=C(C(N)=O)C(c2ccc(S(C)(=O)=O)cc2)C(C(=O)NCCCN2CCC(c3ccccc3)(c3ccccc3)CC2)=C(C)N1 (stereo not shown) [Example 118, 3-Carboxamido-2-ethyl-1,4-dihydro-4-(4-methanesulfonylphenyl)-6-methyl-3-(N-(3-(4,4-diphenylpiperidin-1-yl)propyl)carboxyamido)-pyridine] | 1450 nM | 182 to 183 °C | – | – | –
21 | COC(=O)C1=C(C)NC(C)=C(C(=O)NCCCN2CCC(c3ccccc3)(c3ccccc3)CC2)C1c1ccc(Cl)c([N+](=O)[O-])c1 (stereo not shown) [Example 16, 4-(4-Chloro-3-nitrophenyl)-1,4-dihydro-3-methoxycarbonyl-2,6-dimethyl-5-(N-(3-(4,4-diphenylpiperidin-1-yl)propyl)carboxamido)pyridine] | – | 178 to 181 °C | 1820 nM | – | –
22 | CCC1=C(C(=O)NCCCN2CCC(c3ccccc3)(c3ccccc3)CC2)C(c2ccc([N+](=O)[O-])cc2)C(C(N)=O)=C(COCCN=[N+]=[N-])N1 (stereo not shown) [Example 149, 2-((2-Azidoethyl)oxy)methyl-3-carboxamido-6-ethyl-1,4-dihydro-4-(4-nitro) phenyl-5-(N-(3-(4,4-diphenylpiperidin-1-yl)propyl))carboxamidopyridine] | 562 nM | 87 to 91 °C | – | – | –
23 | CCC1=C(C(=O)NCCCN2CCC(c3ccccc3)(c3ccccc3)CC2)C(c2cccc(OC)c2)C(C(N)=O)=C(C)N1 (stereo not shown) [Example 113, 5-Carboxamide-2-ethyl-1,4-dihydro-4-(3-methoxyphenyl)-6-methyl-3-(N-(3-(4,4-diphenylpiperidin-1-yl)propyl)carboxamido)-pyridine] | 166 nM | 120 to 123 °C | – | – | –
24 | COC(=O)C1=C(C)NC(C)=C(C(=O)NCCCN2CCC(c3ccccc3)(c3ccccc3)CC2)C1c1ccc(C#N)cc1 (stereo not shown) [Example 12, 4-(4-Cyanophenyl)-1,4-dihydro-3-methoxycarbonyl-2,6-dimethyl-5-(N-(3-(4,4-diphenylpiperidin-1-yl)propyl)carboxamido)pyridine] | – | 115 to 118 °C | 1260 nM | – | –
25 | COC(=O)C1=C(C)NC(C)=C(C(=O)NCCCN2CCC(c3ccccc3)(c3ccccc3)CC2)C1c1ccoc1 (stereo not shown) [Example 23, 4-(3-Furyl)-1,4-dihydro-3-methoxycarbonyl-2,6-dimethyl-5-(N-(3-(4,4-diphenylpiperidin-1-yl)propyl)carboxamide)pyridine] | – | 225 to 226 °C | – | – | 562 nM
26 | CCC1=C(C(=O)OCCC#N)C(c2ccc([N+](=O)[O-])cc2)C(C(=O)NCCCN2CCC(c3ccccc3)(c3ccccc3)CC2)=C(COCCN=[N+]=[N-])N1 (stereo not shown) [Example 141] | 437 nM | 63 to 67 °C | – | – | –
